Data from patent US5948803A, “N-substituted dioxothiazolidylbenzamide derivatives and process for producing the same” (Kyorin Pharmaceutical Co., Ltd., priority 1995, dated 1999).

Tests used:
[1] = test system: inherited obese mice (C57BL ob/ob); experiment: Triglyceride-lowering effect in blood, inherited obese mice (C57BL ob/ob); format: in vivo, mouse (C57BL ob/ob); conditions: 2 weeks
Procedure: Employing inherited obese mice (C57BL ob/ob), the compound of Example 16 was administered orally for 2 weeks at following dosages, and thereafter the triglyceride level in blood was determined. The triglyceride-lowering rate in blood was calculated from following formula. [formula]

[2] = biological target: T1, aldose reductase (Rattus norvegicus, UniProt P07943); experiment: In-vitro inhibitory effect against aldose reductase extracted from rat lens (method of Hayman and Kinoshita); format: biochemical
T1 construct: aldose reductase extracted from rat lens; from tissue; host or cells: rat lens
Excerpt: Against aldose reductase extracted from rat lens, the in-vitro inhibitory effect of the compound of Example 16 was investigated by the method of Hayman and Kinoshita (Journal of Biological Chemistry, vol. 240, p. 877 (1965)).

[3] = test system: inherited obese mice (C57BL ob/ob); experiment: Blood sugar-lowering effect in glucose tolerance test, inherited obese mice (C57BL ob/ob); format: in vivo, mouse (C57BL ob/ob); conditions: 10 mg/kg oral, 5 days; glucose 2 g/kg orally after overnight fasting; blood sugar at 0, 30 and 60 minutes
Procedure: Employing inherited obese mice (C57BL ob/ob), prior to test, the blood sugar level was determined by collecting blood from caudal vein. The mice were grouped so as not to cause any difference in the blood sugar level, and the compounds of Example 16, 17 and 29 were administered orally for 5 days at a dosage of 10 mg/kg. For the glucose tolerance test, 2 g/kg of glucose were administered orally after fasting overnight and the blood sugar levels at 0 minute, 30 minutes and 60 minutes were determined. The blood sugar-lowering rate was calculated from following formula. [formula]

Row | IC50 [2] | Compound | In-blood triglyceride depressing rate ([1]; 3 mg/kg oral) | In-blood triglyceride depressing rate ([1]; 10 mg/kg oral) | Blood sugar-depressing rate [3]
1 | 23 nM | COc1ccc(C2SC(=O)NC2=O)cc1C(=O)NCc1ccc(C(F)(F)F)cc1 (stereo not drawn) [Example 16, N-(4-trifluoromethylbenzyl)-5-(2,4-dioxothiazolidin-5-yl)-2-methoxybenzamid] | 51% | 70% | 48%
2 | – | O=C1NC(=O)C(c2ccc(F)c(C(=O)NCc3ccc(C(F)(F)F)cc3)c2)S1 (stereo not drawn) [Example 29] | – | – | 30%
3 | – | COc1ccc(C2SC(=O)NC2=O)cc1C(=O)NCc1cccc(C(F)(F)F)c1 (stereo not drawn) [Example 17] | – | – | 42%
